# What was measured:
# [1] = system: Glucose Transporter-1 (Glut-1); assay: Immunohistochemistry for Glut-1 (hypoxia marker) in HCT116 xenografts; assay type: in vivo, mice; settings: HTI-286 1.7 mg/kg or docetaxel 50 mg/kg iv, 6 hr after treatment
# Protocol: Mice were euthanized six hours after treatment. Tumors were sectioned and H & E stained. Adjacent sections were stained for Glut-1 expression, a marker for hypoxia. Cells positive for Glut-1 appear brown. Arrows indicate examples of hemorrhage.
# Paraffin sections were deparaffinized, incubated with proteinase K (Invitrogen), heated at 95° C. for 20 min in citrate buffer (pH 6), and treated with peroxidase blocking reagent (Dako). Sections were incubated with a monoclonal antibody against Glucose Transporter-1 (Glut-1, Dako) followed by a biotin-conjugated secondary antibody (Pierce). A third layer consisting of HRP-conjugated anti-biotin (DAKO) was followed by diaminobenzidine (Sigma) staining. Sections were counterstained with eosin.
# Two independent tests of this hypothesis were performed. First, we directly assessed hypoxia within tumors by staining with an antibody to Glucose Transporter-1 (Glut-1). Glut-1 has been extensively studied and shown to be specifically expressed only in hypoxic regions (Airley et al., 2001).
# C. novyi-NT = assay: Quantification of C. novyi-NT in tumors by real-time PCR; assay type: in vivo, C. novyi-NT in mice bearing HCT116 xenografts; settings: versus spores without drug; HCT116 xenografts; SD printed +/−0.08 (HTI-286), +/−0.3 (docetaxel)
# Protocol: Mice bearing HCT116 xenografts were treated with C. novyi-NT spores with or without HTI-286 (1.7 mg/kg) as described above. Following euthanasia 24-48 hr later, tumors were harvested, weighed, minced, and Dounce-homogenized. Genomic DNA was isolated using the Qiagen Genomic DNA Buffer Set and Genomic-tip 100/G. 25 ng of DNA was used in a PCR using the conditions described in (Vogelstein and Kinzler, 1999) The following primers specific for the C. novyi-NT phospholipase C gene were used: 5′-[…] (SEQ ID NO:1) and 5′-[…] (SEQ ID NO:2). No detectable primer dimers formed and no nonspecific amplification of mouse or xenograft genomic DNA occurred with these primers and PCR conditions. Real-time PCR was performed using an iCycler, and threshold cycle numbers were calculated using the iCycler Optical system interface software (Bio-Rad Lab, Hercules, Calif.). Averages of the threshold cycle number (Ct) of triplicate measurements per tumor were obtained, and three different tumors were studied for each treatment group. The results were expressed as the difference between the Ct of the treated tumor and the Ct of untreated controls, normalized to tumor weight.
# Second, we directly tested the size of bacterial populations within tumors by measuring the number of bacteria at various times following intravenous injection of C. novyi-NT spores into mice bearing HCT116 xenografts. […]
structure (smiles),measurement,setting,value
"CN[C@H](C(=O)N[C@H](C(=O)N(C)[C@H](/C=C(\C)C(=O)O)C(C)C)C(C)(C)C)C(C)(C)c1ccccc1 [HTI-286, N,β,β-trimethyl-L-phenylalanyl-N^1-[(1S,2E)-3-carboxy-1-isopropylbut-2-enyl]-N^1,3-dimethyl-L-valinamide]",Glut-1 expression (hypoxia marker) in tumors,[1],large amounts of Glut-1
same,increase in number of C. novyi-NT bacteria in tumor when co-injected with drug,C. novyi-NT,6.8 fold

# Reference: patent US8007782B2, “Combination bacteriolytic therapy for the treatment of tumors” (priority 2003, dated 2011)
